We go through 17 compounds from patent US12084472B2 (Ardelyx, Inc., priority 2015, dated 2024).

The experiment concerns the target T1, human TGR5 (Homo sapiens, UniProt Q8TDU6).
T1 construct: expressed in transfected cells; host or cells: HEK293
T1 sequence (Q8TDU6 1-330): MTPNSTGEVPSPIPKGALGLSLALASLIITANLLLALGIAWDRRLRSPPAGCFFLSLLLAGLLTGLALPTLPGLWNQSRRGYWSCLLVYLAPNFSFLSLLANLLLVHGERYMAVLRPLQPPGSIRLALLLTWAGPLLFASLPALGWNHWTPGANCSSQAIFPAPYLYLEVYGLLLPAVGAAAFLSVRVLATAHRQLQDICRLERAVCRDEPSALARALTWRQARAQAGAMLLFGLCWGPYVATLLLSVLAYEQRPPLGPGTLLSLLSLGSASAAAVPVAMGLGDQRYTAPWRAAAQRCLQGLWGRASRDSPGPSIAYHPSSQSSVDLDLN
Put plainly: Cell-based TGR5 assay (cAMP generation, HTRF). Conditions: HEK293 cells stably transfected with human TGR5; cAMP by HTRF; 30 minutes at 37° C.; read-out: pEC50 Human TGR5 (converted). In a few lines:
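First, compounds in 3-fold serial dilution were placed in HBSS with 10 mM HEPES pH 7.4 and 0.5 mM IBMX. Next, human TGR5-expressing HEK293 cells were added and incubated 30 min at 37° C. Finally, cAMP was detected by HTRF and pEC50 derived by logistic fitting.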
For the compound `O=C([C@@H](O)[C@@H](O)[C@H](O)[C@@H](O)CO)N(CCCCSc1ccc(Cl)c(COC2(c3cnccc3-c3ccccc3OC3CC3)CC2)c1)C1CCS(=O)(=O)CC1` [Compound I-569, (2S,3S,4R,5S)-N-(4-{[4-chloro-3-({1-[4-(2-cyclopropoxyphenyl)pyridin-3-yl]cyclopropoxy}methyl)phenyl]sulfanyl}butyl)-N-(1,1-dioxo-1λ^6-thian-4-yl)-2,3,4,5,6-pentahydroxyhexanamide], the EC50 is 126 to 1000 nM. The figure for `CC(CCCC(=O)N(C)C[C@H](O)[C@@H](O)[C@H](O)[C@H](O)CO)c1cc(Cl)c(CNC2(c3cnccc3-c3ccccc3OC3CC3)CC2)cc1Cl` (stereo partly drawn) [Compound I-379, 5-{2,5-dichloro-4-[({1-[4-(2-cyclopropoxyphenyl)pyridin-3-yl]cyclopropyl}amino)methyl]phenyl}-N-methyl-N-[(2S,3R,4R,5R)-2,3,4,5,6-pentahydroxyhexyl]hexanamide] is 126 to 1000 nM. For the compound `O=C(NCCOCCNS(=O)(=O)c1ccc(Cl)c(COC2(c3cnccc3-c3ccccc3OC3CC3)CC2)c1)N[C@@H](CO)[C@@H](O)[C@H](O)[C@H](O)CO` (stereo in doubt) [Compound I-408, 1-(2-{2-[4-chloro-3-({1-[4-(2-cyclopropoxyphenyl)pyridin-3-yl]cyclopropoxy}methyl)benzenesulfonamido]ethoxy}ethyl)-3-[(2S,3R,4S,5R)-1,3,4,5,6-pentahydroxyhexan-2-yl]urea], the EC50 was less than 100 nM. In the case of `CC(CCCCNC(=O)NC[C@H](O)[C@@H](O)[C@H](O)[C@H](O)CO)c1ccc(Cl)c(CNC2(c3cnccc3-c3ccccc3OC3CC3)CC2)c1` (stereo partly drawn) [Compound I-267, 1-(5-{4-chloro-3-[({1-[4-(2-cyclopropoxyphenyl)pyridin-3-yl]cyclopropyl}amino)methyl]phenyl}hexyl)-3-[(2S,3R,4R,5R)-2,3,4,5,6-pentahydroxyhexyl]urea], the EC50 was less than 100 nM.

In the case of `CCNC(=O)CCN(C[C@H](O)[C@@H](O)[C@H](O)[C@H](O)CO)C(=O)CCCSc1ccc(Cl)c(COC2(c3cnccc3-c3ccccc3OC3CC3)CC2)c1` [Compound I-672, 4-{[4-chloro-3-({1-[4-(2-cyclopropoxyphenyl)pyridin-3-yl]cyclopropoxy}methyl)phenyl]sulfanyl}-N-[2-(ethylcarbamoyl)ethyl]-N-[(2S,3R,4R,5R)-2,3,4,5,6-pentahydroxyhexyl]butanamide], the EC50 is 126 to 1000 nM. The figure for `O=C(NCCOCCSc1ccc(Cl)c(COC2(c3cnccc3-c3ccccc3OC3COC3)CC2)c1)NC[C@H](O)[C@@H](O)[C@H](O)[C@H](O)CO` [Compound I-493, 1-(2-(2-(4-Chloro-3-((1-(4-(2-(oxetan-3-yloxy)phenyl)pyridin-3-yl)cyclopropoxy)methyl)phenylthio)ethoxy)ethyl)-3-((2S,3R,4R,5R)-2,3,4,5,6-pentahydroxyhexyl)urea] is less than 100 nM. Under `O=C([C@@H](O)[C@@H](O)[C@H](O)[C@@H](O)CO)N(CCCCO)CCCCSc1ccc(Cl)c(COC2(c3cnccc3-c3ccccc3OC3CC3)CC2)c1` [Compound I-513, (2S,3S,4R,5S)-N-(4-{[4-chloro-3-({1-[4-(2-cyclopropoxyphenyl)pyridin-3-yl]cyclopropoxy}methyl)phenyl]sulfanyl}butyl)-2,3,4,5,6-pentahydroxy-N-(4-hydroxybutyl)hexanamide] stands less than 100 nM.

With `CCc1ccccc1-c1ccncc1C1(NCc2cc(Cl)ccc2Cl)CC1` [Compound I-9, N-[(2,5-dichlorophenyl)methyl]-1-[4-(2-ethylphenyl)pyridin-3-yl]cyclopropan-1-amine], the EC50 was 126 to 1000 nM. The figure for `O=C(NCCOCC[S+]([O-])c1ccc(Cl)c(COC2(c3cnccc3-c3ccccc3OC3CC3)CC2)c1)N[C@@H](CO)[C@@H](O)[C@H](O)[C@H](O)CO` (stereo partly drawn) [Compound I-644, 1-(2-{2-[4-chloro-3-({1-[4-(2-cyclopropoxyphenyl)pyridin-3-yl]cyclopropoxy}methyl)benzenesulfinyl]ethoxy}ethyl)-3-[(2S,3R,4S,5R)-1,3,4,5,6-pentahydroxyhexan-2-yl]urea] is less than 100 nM. Under `O=C(CC1CCN(S(=O)(=O)c2ccc(Cl)c(COC3(c4cnccc4-c4ccccc4OC4CC4)CC3)c2)CC1)NC[C@H](O)[C@@H](O)[C@H](O)[C@H](O)CO` [Compound I-441, 2-{1-[4-chloro-3-({1-[4-(2-cyclopropoxyphenyl)pyridin-3-yl]cyclopropoxy}methyl)benzenesulfonyl]piperidin-4-yl}-N-[(2S,3R,4R,5R)-2,3,4,5,6-pentahydroxyhexyl]acetamide] stands 126 to 1000 nM; under `CC(=O)NCCCCN(C)S(=O)(=O)c1ccc(Cl)c(COC2(c3cnccc3-c3ccccc3OC3CC3)CC2)c1` [Compound I-766, N-(4-((4-chloro-3-((1-(4-(2-cyclopropoxyphenyl)pyridin-3-yl)cyclopropoxy)methyl)-N-methylphenyl)sulfonamido)butyl)acetamide], less than 100 nM; under `O=C([C@@H](O)[C@@H](O)[C@H](O)[C@@H](O)CO)N(CCCSc1ccc(Cl)c(COC2(c3cnccc3-c3ccccc3OC3CC3)CC2)c1)C1CCOCC1` [Compound I-565, (2S,3S,4R,5S)-N-(3-{[4-chloro-3-({1-[4-(2-cyclopropoxyphenyl)pyridin-3-yl]cyclopropoxy}methyl)phenyl]sulfanyl}propyl)-2,3,4,5,6-pentahydroxy-N-(oxan-4-yl)hexanamide], 126 to 1000 nM. Regarding `CS(=O)(=O)NCCCN(CCCCSc1ccc(Cl)c(CNC2(c3cnccc3-c3ccccc3OC3CC3)CC2)c1)C(=O)[C@@H](O)[C@@H](O)[C@H](O)[C@@H](O)CO` [Compound I-591, (2S,3S,4R,5S)-N-[4-({4-chloro-3-[({1-[4-(2-cyclopropoxyphenyl)pyridin-3-yl]cyclopropyl}amino)methyl]phenyl}sulfanyl)butyl]-2,3,4,5,6-pentahydroxy-N-(3-methanesulfonamidopropyl) hexanamide], the EC50 is 126 to 1000 nM. The figure for `Clc1ccc(COC2(c3cnccc3-c3ccccc3OC3CC3)CC2)c(Cl)c1` [Compound I-48, 4-(2-cyclopropoxyphenyl)-3-{1-[(2,4-dichlorophenyl)methoxy]cyclopropyl}pyridine] is 126 to 1000 nM. In the case of `O=C(CCN(CCC(=O)NC[C@H](O)[C@@H](O)[C@H](O)[C@H](O)CO)C(=O)CCCCc1cc(Cl)c(COC2(c3cnccc3-c3ccccc3OC3CC3)CC2)cc1Cl)NC[C@H](O)[C@@H](O)[C@H](O)[C@H](O)CO` (stereo in doubt) [Compound I-168, 5-[2,5-dichloro-4-({1-[4-(2-cyclopropoxyphenyl)pyridin-3-yl]cyclopropoxy}methyl)phenyl]-N,N-bis(2-{[(2S,3R,4R,5R)-2,3,4,5,6-pentahydroxyhexyl]carbamoyl}ethyl)pentanamide], the EC50 is less than 100 nM. The figure for `CC(CCCC(=O)N(CCCO)C[C@H](O)[C@@H](O)[C@H](O)[C@H](O)CO)c1ccc(Cl)c(CNC2(c3cnccc3-c3ccccc3OC3CC3)CC2)c1` (stereo partly drawn) [Compound I-334, 5-{4-chloro-3-[({1-[4-(2-cyclopropoxyphenyl)pyridin-3-yl]cyclopropyl}amino)methyl]phenyl}-N-(3-hydroxypropyl)-N-[(2S,3R,4R,5R)-2,3,4,5,6-pentahydroxyhexyl]hexanamide] is less than 100 nM; for `C[C@@H](CCCCNC(=O)N[C@@H](CO)[C@@H](O)[C@H](O)[C@H](O)CO)c1ccc(Cl)c(COC2(c3cnccc3-c3ccccc3OC3CC3)CC2)c1` [Compound I-263] it is less than 100 nM.
